# Measurements published in ChEMBL document CHEMBL1201862, “PubChem BioAssay data set” (2004).
# Calls of active or inactive are those of the source.
# Tests used:
# [1] = Luminescence Cell-Based Dose Confirmation HTS to Identify Inhibitors of Platelet Dense Granule Release. [Related pubchem assays: 1663 (Primary HTS), 1678 (Summary of Project)]; type: functional
# [2] = Luminescence-based counterscreen assay for KLF5 inhibitors: dose response cell-based high throughput screening assay to identify cytotoxic compounds using the IEC-6 intestinal epithelial cell line. [Related pubchem assays: 1700 (Primary screen.), 1834 (Confirmation screen.), 1858 (Summary AID.), 1905 (Counterscreen.)]; type: functional
# [3] = HEK-293T viability loss after treatment – luminescence, T-cell screen hits, cytotoxicity control for TCR NF-kB inhibitor project, dose response (AID 489026); type: functional, cell-based;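 note: cells exposed to compound about 14 hours before the viability readout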
# [4] = tested on: HEK293; assay: cells; conditions: Homo sapiens;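 note: cells exposed to compound for 14 hours overnight before viability readout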
# [5] = target: Cytochrome P450 3A4 (Homo sapiens, UniProt P08684); conditions: Potency;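 note: confirmatory qHTS run detecting inhibitors and substrates of CYP3A4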
# [6] = target: T1, Mannose-6-phosphate isomerase (Homo sapiens, UniProt P34949); assay: MPI enzyme activity inhibition – biochemical, fluorescence intensity, coupled assay, primary screen (AID 1209)
# T1 sequence (P34949 whole entry): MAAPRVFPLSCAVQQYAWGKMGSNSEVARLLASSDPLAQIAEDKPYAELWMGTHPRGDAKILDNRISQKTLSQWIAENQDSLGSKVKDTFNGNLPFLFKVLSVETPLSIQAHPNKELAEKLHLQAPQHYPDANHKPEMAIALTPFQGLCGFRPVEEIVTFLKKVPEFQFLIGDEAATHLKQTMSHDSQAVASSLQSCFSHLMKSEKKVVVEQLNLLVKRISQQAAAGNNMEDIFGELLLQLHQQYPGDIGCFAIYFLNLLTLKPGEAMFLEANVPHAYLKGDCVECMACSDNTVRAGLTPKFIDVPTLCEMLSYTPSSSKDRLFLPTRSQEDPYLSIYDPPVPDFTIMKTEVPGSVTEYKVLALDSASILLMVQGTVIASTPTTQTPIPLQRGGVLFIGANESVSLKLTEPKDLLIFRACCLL
# [7] = target: T1, Mannose-6-phosphate isomerase; assay: MPI inhibition at elevated mannose 6-phosphate – biochemical, fluorescence intensity, high mannose 6-phosphate, primary screen (AID 1220)
# [8] = target: T2, Apoptotic protease-activating factor 1 (Homo sapiens, UniProt O14727); type: functional
# T2 sequence (O14727 whole entry): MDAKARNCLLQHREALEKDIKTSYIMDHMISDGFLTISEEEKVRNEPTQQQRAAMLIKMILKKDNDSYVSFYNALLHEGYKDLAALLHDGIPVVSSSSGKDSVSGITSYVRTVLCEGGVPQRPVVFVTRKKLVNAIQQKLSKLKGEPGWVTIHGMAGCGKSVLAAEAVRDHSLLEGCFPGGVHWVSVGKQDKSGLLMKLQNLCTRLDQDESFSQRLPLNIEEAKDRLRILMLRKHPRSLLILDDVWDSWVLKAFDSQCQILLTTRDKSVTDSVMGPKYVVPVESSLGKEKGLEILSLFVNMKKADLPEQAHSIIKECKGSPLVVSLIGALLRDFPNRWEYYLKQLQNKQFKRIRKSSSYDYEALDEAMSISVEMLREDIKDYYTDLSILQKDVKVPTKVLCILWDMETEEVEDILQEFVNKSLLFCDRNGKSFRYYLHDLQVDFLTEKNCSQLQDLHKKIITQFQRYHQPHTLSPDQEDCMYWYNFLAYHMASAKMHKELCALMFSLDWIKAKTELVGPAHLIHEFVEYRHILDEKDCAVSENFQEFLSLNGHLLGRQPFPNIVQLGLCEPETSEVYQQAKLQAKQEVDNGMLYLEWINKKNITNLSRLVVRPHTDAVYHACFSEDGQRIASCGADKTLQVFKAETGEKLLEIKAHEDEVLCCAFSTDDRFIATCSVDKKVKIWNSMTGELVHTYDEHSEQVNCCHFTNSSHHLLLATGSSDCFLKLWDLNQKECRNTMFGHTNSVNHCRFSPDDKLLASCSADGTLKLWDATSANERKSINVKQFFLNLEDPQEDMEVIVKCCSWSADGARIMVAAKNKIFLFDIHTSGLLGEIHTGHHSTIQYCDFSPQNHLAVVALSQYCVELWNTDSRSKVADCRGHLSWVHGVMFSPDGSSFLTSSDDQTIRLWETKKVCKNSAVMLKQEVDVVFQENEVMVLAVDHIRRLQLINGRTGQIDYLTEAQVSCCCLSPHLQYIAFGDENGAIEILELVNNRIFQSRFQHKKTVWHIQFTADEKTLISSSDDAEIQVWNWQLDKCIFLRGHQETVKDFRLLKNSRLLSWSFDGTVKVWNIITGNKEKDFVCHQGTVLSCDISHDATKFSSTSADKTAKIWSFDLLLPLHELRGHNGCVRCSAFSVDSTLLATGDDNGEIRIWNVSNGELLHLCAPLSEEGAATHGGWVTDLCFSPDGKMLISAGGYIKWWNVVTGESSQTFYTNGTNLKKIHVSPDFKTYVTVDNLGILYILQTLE
# [9] = target: T3, Protein RecA (Mycobacterium tuberculosis, UniProt P9WHJ3); assay: Fluorescence Cell-Free Homogeneous Dose Retest to Identify Inhibitors of RecA-Intein Splicing Activity. [Related pubchem assays (depositor defined):AID2097, AID2223, AID489010, AID492950]; type: functional
# T3 sequence (P9WHJ3 whole entry): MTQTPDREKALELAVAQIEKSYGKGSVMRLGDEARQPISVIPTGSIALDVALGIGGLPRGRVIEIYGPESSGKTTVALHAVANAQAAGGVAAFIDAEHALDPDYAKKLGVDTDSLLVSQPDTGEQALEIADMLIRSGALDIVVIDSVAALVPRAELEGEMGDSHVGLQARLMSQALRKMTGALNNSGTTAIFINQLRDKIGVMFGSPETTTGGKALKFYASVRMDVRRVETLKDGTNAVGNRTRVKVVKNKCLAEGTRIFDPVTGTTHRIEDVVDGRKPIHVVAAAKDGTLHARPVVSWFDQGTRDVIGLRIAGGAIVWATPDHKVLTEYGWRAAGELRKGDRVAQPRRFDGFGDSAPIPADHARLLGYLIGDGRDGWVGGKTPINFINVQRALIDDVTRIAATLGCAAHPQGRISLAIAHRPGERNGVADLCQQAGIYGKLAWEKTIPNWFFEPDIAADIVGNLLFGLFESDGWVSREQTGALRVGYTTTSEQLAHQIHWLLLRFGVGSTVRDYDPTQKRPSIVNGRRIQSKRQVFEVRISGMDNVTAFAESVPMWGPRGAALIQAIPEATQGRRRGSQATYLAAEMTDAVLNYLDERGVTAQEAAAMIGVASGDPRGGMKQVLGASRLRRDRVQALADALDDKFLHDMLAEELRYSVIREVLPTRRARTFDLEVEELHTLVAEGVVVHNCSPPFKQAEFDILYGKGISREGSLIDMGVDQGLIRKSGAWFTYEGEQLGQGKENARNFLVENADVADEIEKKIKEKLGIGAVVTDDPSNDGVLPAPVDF
# [10] = target: T4, Cytochrome P450 2C9 (Homo sapiens, UniProt P11712); conditions: Potency
# [11] = target: T4, Cytochrome P450 2C9
# [12] = tested on: Streptococcus sp. 'group A'; assay: Streptococcus pyogenes SK(-)GAS viability under kanamycin – luminescence, BacTiterGlo, confirmation, counter-screen for streptokinase expression inhibitor project, dose response (AID 1900); type: functional, organism-based
# [13] = tested on: Streptococcus; assay: GAS UMAA2166 growth inhibition – luminescence, BacTiterGlo, counter-screen for streptokinase expression inhibitor project, dose response (AID 1915); type: functional, organism-based;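 note: potency for reduction of bacterial viability or growth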
# [14] = target: Nonstructural protein 1 (Influenza A virus, UniProt Q194T2); type: functional, Influenza A virus (A/California/07/2009(H1N1))
# [15] = target: Heat shock protein HSP 90-alpha (Homo sapiens, UniProt P07900); type: functional, organism-based
# [16] = tested on: Vero; assay: viability of Vero cells under compound – cytotoxicity control for flavivirus capping enzyme inhibitors (AID 588742); type: functional; conditions: Chlorocebus sabaeus
# [17] = tested on: INS1; assay: INS-1E survival protection against cytokine death – cell-based, luminescence, retest, dose response (AID 449756); type: functional; conditions: Rattus norvegicus;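 note: cell death triggered by IL-1 beta plus TNF-alpha plus IFN-gamma mixture; protective hits raise ATP signal compared with cytokine alone wells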
# [18] = target: T5, Polyadenylate-binding protein 1 (Homo sapiens, UniProt P11940); assay: MLLE binding blockers, Cy5 peptide tracer – biochemical, fluorescence polarization, Cy5-PAM2 peptide, secondary, miRNA deadenylation inhibitor project, dose response (AID 602260); type: functional; conditions: read-out: IC50_Mean
# [19] = target: T5, Polyadenylate-binding protein 1; assay: MLLE domain peptide-binding blockers, IC50 – biochemical, fluorescence polarization, FITC-PAM2 peptide, dose response (AID 602259); type: functional; conditions: read-out: IC50_Mean
# [20] = target: Disintegrin and metalloproteinase domain-containing protein 17 (Homo sapiens, UniProt P78536); assay: exosite inhibitors of ADAM17, dose response, biochemical (AID 743260)
# [21] = inhibition of ADAM10 peptide cleavage – biochemical, FRET peptide substrate, recombinant human ADAM10, selectivity assay for ADAM17 exosite inhibitor project, dose response (AID 743259);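 note: ADAM10 enzyme cleaving a FRET peptide substrate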
# T4 sequence (P11712 whole entry): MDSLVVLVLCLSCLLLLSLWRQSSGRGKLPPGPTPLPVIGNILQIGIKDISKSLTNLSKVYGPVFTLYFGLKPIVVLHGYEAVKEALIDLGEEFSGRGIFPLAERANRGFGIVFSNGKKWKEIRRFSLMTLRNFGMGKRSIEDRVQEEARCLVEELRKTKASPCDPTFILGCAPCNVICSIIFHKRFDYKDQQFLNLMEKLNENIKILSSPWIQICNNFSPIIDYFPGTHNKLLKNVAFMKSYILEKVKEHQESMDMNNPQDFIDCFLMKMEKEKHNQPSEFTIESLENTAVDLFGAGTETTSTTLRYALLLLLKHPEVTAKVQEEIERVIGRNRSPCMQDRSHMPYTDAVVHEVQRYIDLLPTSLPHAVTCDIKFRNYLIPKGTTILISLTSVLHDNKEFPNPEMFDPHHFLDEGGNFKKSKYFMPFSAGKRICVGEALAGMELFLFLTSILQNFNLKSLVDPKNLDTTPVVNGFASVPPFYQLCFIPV
# Sequence of Cytochrome P450 3A4 (P08684 whole entry): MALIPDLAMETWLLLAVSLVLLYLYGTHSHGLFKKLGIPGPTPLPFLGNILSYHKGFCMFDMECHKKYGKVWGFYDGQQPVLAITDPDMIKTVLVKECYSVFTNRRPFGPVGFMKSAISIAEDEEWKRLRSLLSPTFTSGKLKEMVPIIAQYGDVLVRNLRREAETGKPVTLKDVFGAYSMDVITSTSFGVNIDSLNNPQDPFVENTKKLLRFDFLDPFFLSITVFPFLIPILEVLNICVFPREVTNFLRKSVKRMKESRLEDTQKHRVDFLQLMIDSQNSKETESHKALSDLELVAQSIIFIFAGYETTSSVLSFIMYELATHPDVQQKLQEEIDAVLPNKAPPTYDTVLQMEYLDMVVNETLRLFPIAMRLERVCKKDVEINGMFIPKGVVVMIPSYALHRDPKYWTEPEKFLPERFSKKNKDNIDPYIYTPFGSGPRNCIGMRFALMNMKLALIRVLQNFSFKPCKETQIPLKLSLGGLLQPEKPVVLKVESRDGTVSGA
# T5 sequence (P11940 whole entry, the tested form may be a part): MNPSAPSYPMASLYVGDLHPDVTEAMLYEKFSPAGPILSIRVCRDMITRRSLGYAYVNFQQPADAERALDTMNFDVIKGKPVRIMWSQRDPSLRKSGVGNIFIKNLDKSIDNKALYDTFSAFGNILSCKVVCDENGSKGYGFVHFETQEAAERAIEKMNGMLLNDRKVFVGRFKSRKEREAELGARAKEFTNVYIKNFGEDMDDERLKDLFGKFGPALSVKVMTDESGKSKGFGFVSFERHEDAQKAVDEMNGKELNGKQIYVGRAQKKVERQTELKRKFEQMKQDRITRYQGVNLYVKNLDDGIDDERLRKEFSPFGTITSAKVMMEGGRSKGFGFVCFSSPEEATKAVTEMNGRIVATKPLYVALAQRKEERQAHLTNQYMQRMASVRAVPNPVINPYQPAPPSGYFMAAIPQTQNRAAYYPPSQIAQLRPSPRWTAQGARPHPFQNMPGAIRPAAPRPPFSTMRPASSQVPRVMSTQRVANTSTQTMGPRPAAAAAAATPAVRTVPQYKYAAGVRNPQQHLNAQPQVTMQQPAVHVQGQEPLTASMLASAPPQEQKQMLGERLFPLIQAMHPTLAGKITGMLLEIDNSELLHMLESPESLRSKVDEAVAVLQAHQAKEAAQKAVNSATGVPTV
# Sequence of Nonstructural protein 1 (Q194T2 whole entry): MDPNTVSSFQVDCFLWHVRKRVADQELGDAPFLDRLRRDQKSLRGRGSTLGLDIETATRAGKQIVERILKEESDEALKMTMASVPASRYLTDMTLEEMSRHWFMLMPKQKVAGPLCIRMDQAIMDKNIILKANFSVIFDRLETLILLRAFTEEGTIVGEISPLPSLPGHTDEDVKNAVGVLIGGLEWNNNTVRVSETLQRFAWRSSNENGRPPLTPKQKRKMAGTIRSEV
# Sequence of Disintegrin and metalloproteinase domain-containing protein 17 (P78536 whole entry, the tested form may be a part): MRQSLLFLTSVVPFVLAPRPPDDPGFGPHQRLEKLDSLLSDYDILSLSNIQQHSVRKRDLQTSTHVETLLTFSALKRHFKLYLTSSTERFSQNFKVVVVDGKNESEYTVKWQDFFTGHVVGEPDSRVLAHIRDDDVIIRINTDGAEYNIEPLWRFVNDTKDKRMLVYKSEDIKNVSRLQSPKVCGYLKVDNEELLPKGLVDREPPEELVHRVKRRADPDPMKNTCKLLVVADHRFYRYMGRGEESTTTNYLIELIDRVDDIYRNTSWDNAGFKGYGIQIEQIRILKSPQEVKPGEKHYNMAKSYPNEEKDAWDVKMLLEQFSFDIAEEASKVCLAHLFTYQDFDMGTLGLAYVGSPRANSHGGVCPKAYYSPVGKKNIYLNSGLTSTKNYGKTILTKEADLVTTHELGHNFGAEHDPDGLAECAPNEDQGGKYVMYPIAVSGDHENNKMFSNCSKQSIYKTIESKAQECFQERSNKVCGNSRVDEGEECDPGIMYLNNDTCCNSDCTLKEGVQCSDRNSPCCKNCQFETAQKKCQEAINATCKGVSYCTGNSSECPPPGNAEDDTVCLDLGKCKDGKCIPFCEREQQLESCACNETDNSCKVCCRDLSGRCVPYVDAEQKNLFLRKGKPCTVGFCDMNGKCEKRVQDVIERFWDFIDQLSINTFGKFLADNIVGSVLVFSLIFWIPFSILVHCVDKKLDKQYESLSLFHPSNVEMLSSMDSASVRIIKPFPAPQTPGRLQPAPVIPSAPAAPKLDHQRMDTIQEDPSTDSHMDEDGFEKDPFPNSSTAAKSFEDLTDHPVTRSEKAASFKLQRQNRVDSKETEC
smiles,measurement,setting,value
CC(C)(C)c1ccc(C(=O)O/N=C(\N)c2ccccc2)cc1,EC50,[1],4.8 µM (active)
same,IC50,[2],5.77 µM (active)
same,IC50,[3],> 80 µM (inactive)
same,IC50,[4],5.99 µM (active)
COC(=O)[C@@H]1C[C@@]2(O)[C@H](O)[C@H](O)[C@H](O)C[C@H]2N1Cc1ccc(-c2ccccc2)cc1,AC50,[5],15.8 µM (inconclusive)
c1cc2cn[nH]c2cc1NC1CCCCCC1,IC50,[6],> 50 µM (not active)
same,IC50,[7],> 50 µM (not active)
same,IC50,[8],1.94 µM (active)
same,EC50,[9],8.81 µM (active)
OCC1OC(c2ccc3c(c2)OCO3)C=CC1Oc1cc(Cl)cc(Cl)c1 (centres undefined),AC50,[10],3.98 µM (inconclusive)
CC(C)(C)c1ccc(S(=O)(=O)/C=C\C#N)cc1,AC50,[10],2.51 µM (inconclusive)
same,AC50,[11],7.94 µM (inconclusive)
Cc1ccc(S(=O)(=O)Nc2cc(Cl)c(O)c3ncccc23)cc1,EC50,[12],8.9 µM (active)
same,IC50,[2],4.8 µM (active)
same,EC50,[13],9.72 µM (active)
same,IC50,[14],11.5 µM (active)
same,AC50,[15],2.38 µM (active)
same,CC50,[16],5.28 µM (active)
same,AC50,[17],2.4 µM (active)
same,IC50,[18],> 66 µM (inactive)
same,IC50,[19],> 66 µM (inactive)
same,IC50,[20],21.2 µM (inactive)
same,IC50,[21],11.1 µM (inactive)
COc1cc(O)c(C(=O)c2ccccc2)cc1O [CEAROIN],AC50,[5],0.794 µM (inconclusive)
